Here are results for 20 compounds from patent publication US10087188B2, “Benzamide imidazopyrazine Btk inhibitors” (MERCK SHARP & DOHME CORP., priority 2014, dated 2018).

In assay [1] the target is BTK enzyme (recombinant full-length BTK, hBTK) (Homo sapiens (Human), UniProt Q06187). As to the kind of experiment: Btk enzyme activity assay, LANCE TR-FRET. The class given is biochemical. The note with it: 50 pM hBTK, 2 μM biotin-A5-peptide, 25 μM ATP; 60 minute compound & enzyme incubation; read-out: BTK binding IC50. The method, then:
Btk Enzyme Activity Assay Methods
BTK enzymatic activity was determined with the LANCE (Lanthanide Chelate Excite) TR-FRET (Time-resolved fluorescence resonance energy transfer) assay. […] After 60 minutes incubation with detection reagents, reaction plates were read on a PerkinElmer EnVision plate reader using standard TR-FRET protocol.
For orientation: In TR-FRET formats the signal depends on donor and acceptor labels being close together.

Assay [2] concerns HeLa cells. Description: [3H] Adenosine uptake assay. The class given is cell-based. The note with it: accumulation of tritiated adenosine into HeLa cells, compound concentration range 10 μM to 0.032 nM, read-out: ADU inhibition IC50 (adenosine uptake inhibition potency). The method, then: Compounds are also screen in an adenosine uptake functional cellular assay using the protocol described below:
[^3H] Adenosine Uptake Assay Methods
Adenosine uptake activity was determined by monitoring the accumulation of tritiated adenosine into HeLa cells (ATCC catalog #CCL-2) using a PMT-based radiometric detection instrument. […] These cells were incubated overnight at 37° C. in a humidified atmosphere with 5% (v/v) CO2. After this time the growth medium was removed and replaced with 40 μL assay medium comprising: Hanks balanced salts solution (HBSS; Thermo Fisher Catalog #SH30268.01)+5% (v/v) FBS. Compound stock solutions in DMSO were diluted in assay medium to 2.5× final compound concentration maintaining a constant DMSO concentration of 0.25% (v/v). 40 μL of compound in assay medium was dispensed into individual wells of the Cytostar-T plates and the plates were incubated for 30 minutes under ambient laboratory conditions. Following this incubation, 20 μL of 500 nM[^3H] adenosine (American Radiolabeled Chemicals Inc. Catalog #ART0287) in assay medium was added and incubated for a further 60 minutes under ambient laboratory conditions. The amount of radiolabel accumulation was then determined using a Perkin Elmer Topcount NXT microplate reader. In brief, HeLa cells adhere to the bottom of the Cytostar-T plate, uptake of [^3H]adenosine into these cells brings the radiolabel into sufficient proximity to excite the scintillant in the base of the plates. These events are captured by single PMT, time-resolved coincidence counting. IC50 values were determined by 4 parameter robust fit of counts per second values vs. (Log10) compound concentrations.

pIC50: −log10 of the molar value. Read-outs that look alike come from different tables or passages of the source.

BTK enzyme (recombinant full-length BTK, hBTK), sequence (Q06187 whole entry): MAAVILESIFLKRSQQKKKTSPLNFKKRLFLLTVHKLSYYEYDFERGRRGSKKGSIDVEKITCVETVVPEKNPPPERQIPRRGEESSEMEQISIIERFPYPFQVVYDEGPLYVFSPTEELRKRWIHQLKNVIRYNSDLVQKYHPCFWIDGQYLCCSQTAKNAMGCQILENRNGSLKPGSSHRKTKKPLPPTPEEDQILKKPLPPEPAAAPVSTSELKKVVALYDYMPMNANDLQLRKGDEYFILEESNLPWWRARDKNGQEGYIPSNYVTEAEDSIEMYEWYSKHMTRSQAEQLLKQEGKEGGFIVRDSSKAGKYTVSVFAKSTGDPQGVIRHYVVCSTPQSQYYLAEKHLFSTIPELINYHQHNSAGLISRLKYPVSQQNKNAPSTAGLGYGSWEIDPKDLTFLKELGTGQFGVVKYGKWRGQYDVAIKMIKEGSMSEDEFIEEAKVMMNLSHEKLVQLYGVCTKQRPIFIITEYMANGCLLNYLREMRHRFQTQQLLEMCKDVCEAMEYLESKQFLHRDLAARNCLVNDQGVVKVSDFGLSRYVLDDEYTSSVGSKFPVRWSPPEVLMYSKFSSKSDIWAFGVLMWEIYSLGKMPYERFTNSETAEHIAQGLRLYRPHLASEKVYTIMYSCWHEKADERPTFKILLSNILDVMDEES

As usually defined, the pIC50 is the negative decadic logarithm of the IC50, by convention in mol/L. In the case of `CCOc1cc(C(=O)Nc2cc(C(F)(F)F)ccn2)cc(F)c1-c1nc([C@@H]2CC[C@](C)(C(=O)O)C2(C)C)n2ccnc(N)c12` [Example 113, (1S,3R)-3-[8-amino-1-(2-ethoxy-6-fluoro-4-{[4-(trifluoromethyl)pyridin-2-yl]carbamoyl}phenyl)imidazo[1,5-a]pyrazin-3-yl]-1,2,2-trimethylcyclopentane carboxylic acid], the pIC50 in assay [1] is 9.32; in assay [2] (Homo sapiens, HeLa) it was 5.23.

With `COc1cc(C(=O)Nc2cc(C(F)(F)F)ccn2)ccc1-c1nc(C2CCC(C)(C(=O)O)CC2)n2c(Cl)cnc(N)c12` (stereo not drawn) [Example 166, 4-[8-amino-5-chloro-1-(2-methoxy-4-{[4-(trifluoromethyl)pyridin-2-yl]carbamoyl}phenyl)imidazo[1,5-a]pyrazin-3-yl]-1-methylcyclohexane-carboxylic acid], the pIC50 in assay [1] is 8.37; in assay [2] (Homo sapiens, HeLa), 5.00.

For the compound `CC1(C)[C@@H](C(=O)O)CC[C@@]1(C)c1nc(-c2ccc(C(=O)Nc3cc(C(F)(F)F)ccn3)cc2)c2c(N)nccn12` [Example 142, (1S,3R)-3-[8-amino-1-(4-{[4-(trifluoromethyl)pyridin-2-yl]carbamoyl}phenyl)imidazo[1,5-a]pyrazin-3-yl]-2,2,3-trimethylcyclopentane carboxylic acid], the pIC50 was 8.92 in assay [1] and 5.36 in assay [2] (Homo sapiens, HeLa).

Turning to `C[C@@]1(C(=O)O)CC[C@@](C)(c2nc(-c3ccc(C(=O)Nc4cc(C(F)(F)F)ccn4)cc3)c3c(N)nccn23)C1` [Example 79, (1R,3R)-3-[8-amino-1-(4-{[4-(trifluoromethyl)pyridin-2-yl]carbamoyl}phenyl)imidazo[1,5-a]pyrazin-3-yl]-1,3-dimethylcyclopentane carboxylic acid], the pIC50 in assay [1] is 9.14; in assay [2] (Homo sapiens, HeLa), 5.80.

For `C[C@H]1CO[C@@H](c2nc(-c3ccc(C(=O)Nc4cc(C5CC5)ccn4)cc3F)c3c(N)ncc(Cl)n23)CN1[C@H]1CC[C@](C)(C(=O)O)CC1` [Example 209, trans-4-[(2R,5S)-2-(8-amino-5-chloro-1-{4-[(4-cyclopropylpyridin-2-yl)carbamoyl]-2-fluorophenyl}imidazo[1,5-a]pyrazin-3-yl)-5-methylmorpholin-4-yl]-1-methylcyclohexanecarboxylic acid], the pIC50 in assay [1] was 9.12; in assay [2] (Homo sapiens, HeLa), 5.50.

`CCOc1cc(C(=O)Nc2cc(C(F)(F)F)ccn2)ccc1-c1nc([C@H]2CC[C@@](C)(C(=O)O)C2(C)C)n2ccnc(N)c12` [Example 72, (1R,3S)-3-[8-amino-1-(2-ethoxy-4-{[4-(trifluoromethyl)pyridin-2-yl]carbamoyl}phenyl)imidazo[1,5-a]pyrazin-3-yl]-1,2,2-trimethylcyclopentane carboxylic acid]: the pIC50 in assay [1] is 9.21; in assay [2] (Homo sapiens, HeLa), 5.50.

Turning to `CCOc1cc(C(=O)Nc2cc(C(F)(F)F)ccn2)cc(F)c1-c1nc([C@]2(C)CC[C@@](C)(C(=O)O)CC2)n2ccnc(N)c12` [Example 119, trans-4-[8-amino-1-(2-ethoxy-6-fluoro-4-{[4-(trifluoromethyl)pyridin-2-yl]carbamoyl}phenyl)imidazo[1,5-a]pyrazin-3-yl]-1,4-dimethylcyclohexane-carboxylic acid], the pIC50 was 9.02 in assay [1] and 5.00 in assay [2] (Homo sapiens, HeLa).

Turning to `C[C@H]1CO[C@@H](c2nc(-c3ccc(C(=O)Nc4cc(C(F)(F)F)ccn4)cc3)c3c(N)nccn23)CN1[C@H]1CC[C@](C)(C(=O)O)CC1` [Example 191, trans-4-{(2R,5S)-2-[8-amino-1-(4-{[4-(trifluoromethyl)pyridin-2-yl]carbamoyl}phenyl)imidazo [1,5-a]pyrazin-3-yl]-5-methylmorpholin-4-yl}-1-methylcyclohexanecarboxylic acid], the pIC50 is 9.19 in assay [1] and 5.93 in assay [2] (Homo sapiens, HeLa).

Regarding `C[C@@]1(C(=O)O)CCC[C@@](C)(c2nc(-c3ccc(C(=O)Nc4cc(C(F)(F)F)ccn4)cc3)c3c(N)nccn23)C1` [Example 138, (1R,3R)-3-[8-amino-1-(4-{[4-(trifluoromethyl)pyridin-2-yl]carbamoyl}phenyl)imidazo[1,5-a]pyrazin-3-yl]-1,3-dimethylcyclohexane-carboxylic acid], the pIC50 in assay [1] was 9.47; in assay [2], 5.22.

In the case of `C[C@@]1(C(=O)O)CCC[C@H](c2nc(-c3ccc(C(=O)Nc4cc(C5CC5)ccn4)cc3)c3c(N)nccn23)C1` [Example 159, (1R,3S)-3-(8-amino-1-{4-[(4-cyclopropylpyridin-2-yl)carbamoyl]phenyl}imidazo[1,5-a]pyrazin-3-yl)-1-methylcyclohexane-carboxylic acid], the negative-log IC50 (pIC50) in assay [1] is 8.96; in assay [2] (Homo sapiens, HeLa), 5.52.

Take `CCOc1cc(C(=O)Nc2cc(C(F)(F)F)ccn2)ccc1-c1nc([C@@H]2CCC[C@@](C(=O)O)(C(C)C)C2)n2ccnc(N)c12` [Example 88, (1S,3R)-3-[8-amino-1-(2-ethoxy-4-{[4-(trifluoromethyl)pyridin-2-yl]carbamoyl}phenyl)imidazo[1,5-a]pyrazin-3-yl]-1-(1-methylethyl) cyclohexane-carboxylic acid]: the pIC50 in assay [1] was 7.41; in assay [2] (Homo sapiens, HeLa), 5.43.

With `CC1(C)[C@@H](c2nc(-c3ccc(C(=O)Nc4cc(C(F)(F)F)ccn4)cc3)c3c(N)nccn23)CC[C@@]1(C)C(=O)O` [Example 77, (1R,3S)-3-[8-amino-1-(4-{[4-(trifluoromethyl)pyridin-2-yl]carbamoyl}phenyl)imidazo[1,5-a]pyrazin-3-yl]-1,2,2-trimethylcyclopentane carboxylic acid], the pIC50 in assay [1] was 8.34; in assay [2] (Homo sapiens, HeLa), 5.41.

For the compound `Nc1nccn2c([C@H]3CC[C@@H](C(=O)N4CCC[C@@H]4C(=O)O)C3)nc(-c3ccc(C(=O)Nc4cc(C(F)(F)F)ccn4)cc3)c12` [Example 18, 1-({(1R,3S)-3-[8-amino-1-(4-{[4-(trifluoromethyl)pyridin-2-yl]carbamoyl}phenyl)imidazo[1,5-a]pyrazin-3-yl]cyclopentyl}carbonyl)-D-proline], the pIC50 in assay [1] was 8.59; in assay [2] (Homo sapiens, HeLa), 5.00.

For the compound `Nc1nccn2c([C@@H]3CCC[C@H](C(=O)O)C3)nc(-c3ccc(C(=O)Nc4cc(OC5CC5)ccn4)cc3)c12` [Example 12, (1S,3R)-3-[8-amino-1-(4-{[4-(cyclopropyloxy)pyridin-2-yl]carbamoyl}phenyl)imidazo [1,5-a]pyrazin-3-yl]cyclohexane-carboxylic acid], the pIC50 in assay [1] is 8.77.

Consider `Nc1nccn2c([C@@H]3CCC[C@H](C(=O)O)C3)nc(-c3ccc(C(=O)Nc4cc(C5CC5)ccn4)cc3)c12` [Example 8, (1S,3R)-3-(8-amino-1-{4-[(4-cyclopropyl-pyridin-2-yl)carbamoyl]phenyl}imidazo [1,5-a]pyrazin-3-yl)cyclohexane-carboxylic acid], for which, in assay [1], the pIC50 was 8.68.

Turning to `Nc1nccn2c([C@H]3CCC[C@@H](C(=O)O)C3)nc(-c3ccc(C(=O)Nc4cc(C5CC5)ccn4)cc3)c12` [Example 4, (1R,3S)-3-(8-amino-1-{4-[(4-cyclopropyl-pyridin-2-yl)carbamoyl]phenyl}imidazo [1,5-a]pyrazin-3-yl)cyclohexane-carboxylic acid], the pIC50 in assay [1] is 7.53.

In the case of `C[C@]1(C(=O)O)CCC[C@@H](c2nc(-c3ccc(C(=O)Nc4cc(C5CC5)ccn4)cc3F)c3c(N)nccn23)C1` [Example 156, (1S,3R)-3-(8-amino-1-{4-[(4-cyclopropylpyridin-2-yl)carbamoyl]-2-fluorophenyl}imidazo [1,5-a]pyrazin-3-yl)-1-methylcyclohexane-carboxylic acid], the pIC50 in assay [1] was 8.77.

Turning to `Nc1nccn2c([C@H]3CCN[C@@H](C(=O)O)C3)nc(-c3ccc(C(=O)Nc4cc(C(F)(F)F)ccn4)cc3)c12` [Example 31, (2R,4S)-4-[8-amino-1-(4-{[4-(trifluoromethyl)pyridin-2-yl]carbamoyl}phenyl)imidazo[1,5-a]pyrazin-3-yl]piperidine-2-carboxylic acid], in assay [1], the pIC50 is 8.59.

Take `COc1cc(C(=O)Nc2cc(C(F)(F)F)ccn2)ccc1-c1nc([C@@H]2CCC[C@H](C(=O)O)C2)n2ccnc(N)c12` [Example 11, (1S,3R)-3-[8-amino-1-(2-methoxy-4-{[4-(trifluoromethyl)pyridin-2-yl]carbamoyl}phenyl)imidazo [1,5-a]pyrazin-3-yl]cyclohexane-carboxylic acid]: in assay [1], the pIC50 is 8.80.

As to `COc1cc(C(=O)Nc2cc(C(F)(F)F)ccn2)ccc1-c1nc([C@H]2CCC[C@@H](C(=O)O)C2)n2ccnc(N)c12` [Example 5, (1R,3S)-3-[8-amino-1-(2-methoxy-4-{[4-(trifluoromethyl)pyridin-2-yl]carbamoyl}phenyl)imidazo [1,5-a]pyrazin-3-yl]cyclohexane-carboxylic acid], the negative logarithm of the IC50 (pIC50) in assay [1] is 7.39.
